Test results from the supplement of paper PMC10307832.

How the values were obtained:
Experiment in all cases: relative viability (nuclei count vs DMSO), 5 days (fraction); higher = more cells survive
MIM1 = compound: CC1=CSC(=NC2CCCCC2)N1/N=C/C3=C(C(=C(C=C3)O)O)O [MIM1]
Procedure, shortened: (§1)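 Hoechst staining, done together with fixation and permeabilisation, marked nuclei for 4× imaging and MetaXpress counting. This followed 5 days without medium change after lung cancer cell lines, kept overnight at 37 °C in 1536-well plates, were pinned with five library-drug doses (not always all listed) spaced by √10 on vehicle-anchored plates. Viability is the ratio of treated-well to vehicle-well nuclei, expressed as a median across plates. Plates passed only at control CV below 25% with at least one doubling.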

Luminespib = compound: CCNC(=O)c1noc(-c2cc(C(C)C)c(O)cc2O)c1-c1ccc(CN2CCOCC2)cc1 [Luminespib]
Procedure, shortened: as §1

Saracatinib = compound: CN1CCN(CCOc2cc(OC3CCOCC3)c3c(Nc4c(Cl)ccc5c4OCO5)ncnc3c2)CC1 [Saracatinib]
Procedure, shortened: as §1

Nilotinib = compound: Cc1cn(-c2cc(NC(=O)c3ccc(C)c(Nc4nccc(-c5cccnc5)n4)c3)cc(C(F)(F)F)c2)cn1 [Nilotinib]
Procedure, shortened: as §1

Lenalidomide = compound: Nc1cccc2c1CN(C1CCC(=O)NC1=O)C2=O [Lenalidomide]
Procedure, shortened: as §1

| Cell Line | relative viability (MIM1; 0.2 µM) | relative viability (MIM1; 0.6325 µM) | relative viability (MIM1; 2 µM) | relative viability (MIM1; 6.325 µM) | relative viability (MIM1; 20 µM) | relative viability (Luminespib; 0.002 µM) | relative viability (Luminespib; 0.006325 µM) | relative viability (Luminespib; 0.01 µM, anchor plate) | relative viability (Luminespib; 0.02 µM) | relative viability (Luminespib; 0.06325 µM) | relative viability (Luminespib; 0.2 µM) | relative viability (Saracatinib; 0.02 µM) | relative viability (Saracatinib; 0.2 µM) | relative viability (Saracatinib; 0.6325 µM) | relative viability (Saracatinib; 2 µM) | relative viability (Nilotinib; 0.001 µM) | relative viability (Nilotinib; 0.003162 µM) | relative viability (Nilotinib; 0.01 µM) | relative viability (Nilotinib; 0.03162 µM) | relative viability (Nilotinib; 0.1 µM) | relative viability (Lenalidomide; 0.253 µM) | relative viability (Lenalidomide; 0.8 µM) | relative viability (Lenalidomide; 2.53 µM) | relative viability (Lenalidomide; 8 µM) |
| --- | --- | --- | --- | --- | --- | --- | --- | --- | --- | --- | --- | --- | --- | --- | --- | --- | --- | --- | --- | --- | --- | --- | --- | --- |
| NCI-H1437 | 0.956 | 0.927 | 1 | 0.714 | 0.273 | 0.977 | 0.943 | 1.12 | 1.02 | 0.743 | 0.26 | 1.02 | 1.02 | 1.04 | 0.971 | 0.955 | 0.988 | 1.12 | 0.868 | 0.958 | 1.02 | 0.939 | 1.05 | 1.01 |
| NCI-H1355 | 1 | 0.824 | 1.07 | 0.816 | 0.595 | 0.953 | 0.956 | 0.746 | 0.52 | 0.67 | 0.166 | 1.02 | 0.972 | 1.03 | 0.975 | 0.96 | 1.21 | 1.13 | 1.01 | 0.428 | 1 | 0.746 | 1.02 | 0.721 |
| NCI-H1755 | 1 | 0.956 | 1.01 | 0.816 | 0.308 | 0.996 | 0.987 | 0.355 | 0.979 | 0.818 | 0.225 | 0.953 | 0.859 | 0.957 | 0.88 | 0.974 | 1.08 | 1.03 | 0.832 | 0.828 | 0.976 | 0.986 | 1.07 | 0.879 |
| NCI-H2228 | 0.999 | 0.978 | 1.31 | 0.517 | 0.172 | 1.23 | 0.87 | 0.148 | 0.451 | 0.172 | 0.157 | 1.04 | 0.825 | 0.9 | 0.841 | 0.773 | 1.5 | 1.36 | 0.698 | 0.511 | 0.795 | 1.07 | 1.22 | 0.89 |
| NCI-H1792 | 0.966 | 0.79 | 0.728 | 0.76 | 0.659 | 0.926 | 0.71 | 0.52 | 0.348 | 0.167 | 0.107 | 1.09 | 0.726 | 1.03 | 0.776 | 0.706 | 0.817 | 1.07 |  | 0.831 | 1.09 | 0.715 | 1.35 | 0.419 |
| NCI-H661 | 0.991 | 1.01 | 0.941 | 0.746 | 0.406 | 1.01 | 0.969 | 0.916 | 0.778 | 0.754 | 0.325 | 1.02 | 0.977 | 0.926 | 0.669 | 0.951 | 1.06 | 1.09 | 0.949 | 0.948 | 0.917 | 0.934 | 1.03 | 0.958 |
| NCI-H1648 | 1.01 | 0.929 | 0.989 | 0.635 | 0.283 | 0.671 | 0.811 |  | 0.837 | 0.742 | 0.413 | 0.895 | 0.553 | 1.52 | 0.727 | 0.79 | 0.738 | 0.829 | 0.605 | 0.757 | 0.93 | 0.732 | 1.29 | 0.705 |
| NCI-H2023 | 0.896 | 0.954 | 0.847 | 0.43 | 0.0909 | 0.903 | 0.999 | 0.769 | 0.5 | 0.062 | 0.058 | 1.04 | 0.663 | 0.905 | 0.821 | 0.916 | 0.9 | 1.31 | 0.83 | 0.537 | 0.928 | 1.04 | 1.13 | 0.968 |
| NCI-H520 | 1.02 | 1.01 | 1.01 | 0.859 | 0.383 | 1.05 | 1.02 | 0.235 | 0.547 | 0.163 | 0.157 | 1.01 |  | 0.897 | 0.494 | 0.86 |  | 1.21 | 0.896 | 0.949 | 0.918 | 0.917 | 1.14 | 0.784 |
| SK-LU-1 | 1.05 | 1.08 | 1.12 | 0.934 | 0.617 | 1.09 | 0.777 | 0.202 | 0.644 | 0.186 | 0.192 | 1.03 | 0.802 | 0.707 | 0.53 | 0.932 | 0.927 | 1.24 | 0.718 | 0.894 | 0.963 | 1.03 | 1.23 | 0.903 |
| NCI-H1666 | 1.03 | 0.966 | 0.945 | 0.802 | 0.564 | 1.05 | 0.937 | 1.03 | 1.01 | 0.956 | 0.838 | 1.02 | 0.942 | 1.27 | 1.17 | 0.934 | 0.989 | 1.06 | 0.918 | 1.01 | 1.02 | 0.745 | 1.1 | 1.05 |
| NCI-H838 | 0.967 | 0.959 | 0.786 | 0.78 | 0.372 | 0.983 | 0.92 | 0.298 | 0.554 | 0.177 | 0.186 | 0.96 | 0.897 | 0.898 | 0.772 | 0.924 | 1.02 | 1.06 | 0.863 | 0.992 | 0.969 | 0.879 | 1.07 | 0.823 |
